How the values were obtained:
[1] = biological target: T1, Kinesin-like protein KIF11 (Homo sapiens, UniProt P52732); experiment: Inhibition of human kinesin Eg5
T1 sequence (P52732 whole entry): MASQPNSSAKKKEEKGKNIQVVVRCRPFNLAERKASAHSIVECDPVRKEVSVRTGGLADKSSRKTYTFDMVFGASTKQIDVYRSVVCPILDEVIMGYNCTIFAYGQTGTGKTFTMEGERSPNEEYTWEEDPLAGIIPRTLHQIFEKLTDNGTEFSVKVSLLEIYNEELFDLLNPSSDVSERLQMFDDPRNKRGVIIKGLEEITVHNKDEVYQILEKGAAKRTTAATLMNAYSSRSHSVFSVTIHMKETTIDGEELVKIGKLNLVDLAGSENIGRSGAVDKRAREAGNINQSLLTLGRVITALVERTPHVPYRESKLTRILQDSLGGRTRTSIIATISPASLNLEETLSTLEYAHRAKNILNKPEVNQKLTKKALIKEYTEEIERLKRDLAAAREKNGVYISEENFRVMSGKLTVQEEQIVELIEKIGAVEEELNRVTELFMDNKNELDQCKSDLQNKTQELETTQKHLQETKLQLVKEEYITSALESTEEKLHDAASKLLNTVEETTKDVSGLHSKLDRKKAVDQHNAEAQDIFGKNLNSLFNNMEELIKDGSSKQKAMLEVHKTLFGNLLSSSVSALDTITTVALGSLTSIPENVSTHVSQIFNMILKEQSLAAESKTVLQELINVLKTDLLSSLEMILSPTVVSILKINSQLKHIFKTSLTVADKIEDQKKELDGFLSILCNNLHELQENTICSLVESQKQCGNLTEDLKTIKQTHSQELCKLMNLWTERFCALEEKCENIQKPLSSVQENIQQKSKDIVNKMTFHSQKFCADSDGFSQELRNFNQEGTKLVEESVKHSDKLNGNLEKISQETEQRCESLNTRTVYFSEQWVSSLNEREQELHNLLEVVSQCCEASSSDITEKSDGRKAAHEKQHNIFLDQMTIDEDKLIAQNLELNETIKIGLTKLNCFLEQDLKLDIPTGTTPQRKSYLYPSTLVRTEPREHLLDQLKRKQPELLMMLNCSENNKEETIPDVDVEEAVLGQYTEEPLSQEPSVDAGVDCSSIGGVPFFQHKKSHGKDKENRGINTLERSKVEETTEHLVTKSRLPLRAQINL

NCI-H1299 = experiment: Antiproliferative activity against human NCI-H1299 cells after 72 hrs by Alamar blue assay
HCT-116 = experiment: Antiproliferative activity against human HCT116 cells after 72 hrs by Alamar blue assay
K562 = experiment: Antiproliferative activity against human K562 cells after 72 hrs by Alamar blue assay
[2] = Antiproliferative activity against human hTERT-HME1 cells after 72 hrs by Alamar blue assay
BXPC-3 = experiment: Antiproliferative activity against human BxPC3 cells after 72 hrs by Alamar blue assay
[3] = Antiproliferative activity against human KBV1 cells overexpressing MDR1 after 72 hrs by Alamar blue assay; conditions: KB-V1, 72 h
[4] = Antiproliferative activity against human KBV1 cells overexpressing MDR1 after 72 hrs by Alamar blue assay in presence of zosuquidar; conditions: KB-V1, 72 h
[5] = Antiproliferative activity against human KB3-1 cells after 72 hrs by Alamar blue assay in presence of zosuquidar; conditions: KB 3-1, 72 h
[6] = Antiproliferative activity against human KB3-1 cells after 72 hrs by Alamar blue assay; conditions: KB 3-1, 72 h
[7] = Drug resistant ratio of EC50 for human KBV1 cells overexpressing MDR1 to EC50 for KB3-1 cells; type: functional, cell-based

| SMILES | EC50 (NCI-H1299; Homo sapiens, NCI-H1299, 72 h) | EC50 (HCT-116; Homo sapiens, HCT-116, 72 h) | EC50 (K562; Homo sapiens, K562, 72 h) | EC50 ([2]; Homo sapiens, HME1, 72 h) | EC50 (BXPC-3; Homo sapiens, BXPC-3, 72 h) | EC50 (NCI-H1299; nci-h1299) | EC50 (HCT-116; hct-116) | EC50 (K562; k562) | EC50 ([2]; hme1) | EC50 (BXPC-3; bxpc-3) | also measured |
| --- | --- | --- | --- | --- | --- | --- | --- | --- | --- | --- | --- |
| CCOC(=O)C1=C(C)NC(=S)N[C@@H]1c1cccc(O)c1 | – | – | – | – | – | – | – | – | – | – | IC50 [1]: 30 µM |
| CC1=C(C(=O)c2ccc(F)cc2)C(c2cccc(O)c2)NC(=S)N1C (stereo unspecified) | 2.39 µM | 0.951 µM | 2.62 µM | 2.54 µM | 2.16 µM | – | – | – | – | – | – |
| CC1=C(C(=O)c2cccc(F)c2)C(c2cccc(O)c2)NC(=S)N1C (stereo unspecified) | 2.77 µM | 1.29 µM | 2.73 µM | 2.82 µM | 2.84 µM | – | – | – | – | – | – |
| CC1=C(C(=O)c2ccc(F)c(F)c2)C(c2cccc(O)c2)NC(=S)N1C (racemic) | – | – | – | – | – | 1.35 µM | 0.387 µM | 1.15 µM | 0.247 µM | 0.601 µM | EC50 [3]: 2.08 µM; EC50 [4]: 0.671 µM; EC50 [5]: 0.8 µM; EC50 [6]: 0.832 µM; ratio [7]: 2.5 |
| O=C1CCCC2=C1C(c1cccc(O)c1)NC(=S)N2 (racemic) | 4.9 µM | 1.81 µM | 4.78 µM | 2.44 µM | 2.07 µM | – | – | – | – | – | – |
| CCOC(=O)C1=C(C)NC(=S)NC1c1cccc(O)c1 (racemic) [MONASTROL] | > 0.1 µM | 24.2 µM | > 0.1 µM | 45.1 µM | > 0.1 µM | – | – | – | – | – | EC50 [3]: 99.1 µM; EC50 [4]: 45.4 µM; EC50 [5]: 56.5 µM; EC50 [6]: 85.1 µM; ratio [7]: 1.2 |
| CC1=C(C(=O)c2ccc(F)c(F)c2)C(c2cccc(O)c2)NC(=S)N1C (stereo in doubt; form 1) | – | – | – | – | – | 33 µM | 15.2 µM | 26.6 µM | > 0.1 µM | 33.7 µM | – |
| CC1=C(C(=O)c2ccccc2)C(c2cccc(O)c2)NC(=S)N1C (stereo in doubt; form 1) | – | – | – | – | – | 6.89 µM | 1.83 µM | 5.69 µM | 1.78 µM | 5 µM | – |
| CC1=C(C(=O)c2ccc(F)c(F)c2)C(c2cccc(O)c2)NC(=S)N1C (stereo in doubt; form 2) | – | – | – | – | – | 0.783 µM | 0.327 µM | 0.82 µM | 0.223 µM | 0.736 µM | – |
| CC1=C(C(=O)c2ccccc2)C(c2cccc(O)c2)NC(=S)N1C (stereo in doubt; form 2) | – | – | – | – | – | 18.1 µM | 6.5 µM | 11.4 µM | > 50 µM | 14.4 µM | – |
| CC1=C(C(=O)c2ccccc2)C(c2cccc(O)c2)NC(=S)N1C (stereo in doubt; form 3) | – | – | – | – | – | 4.61 µM | 1.74 µM | 3.7 µM | 1.19 µM | 3.6 µM | – |
| CC[C@]1(O)C[C@@H]2CN(CCc3c([nH]c4ccccc34)[C@@](C(=O)OC)(c3cc4c(cc3OC)N(C)[C@H]3[C@@](O)(C(=O)OC)[C@H](OC(C)=O)[C@]5(CC)C=CCN6CC[C@]43[C@@H]65)C2)C1 [VINBLASTINE] | – | – | – | – | – | – | – | – | – | – | EC50 [3]: 2.04 µM; EC50 [4]: 0.013 µM; EC50 [5]: 0.0085 µM; EC50 [6]: 0.0126 µM; ratio [7]: 162 |

From ChEMBL document CHEMBL1212821 (J Med Chem, 2010)
